Measured values reported in patent US12492169B2, “Aminopyridine compound and application thereof” (priority 2020, dated 2025).
In brackets after ≈: the same amount, converted by molar mass. Like-named read-outs stand apart in the source and are kept apart here.

Key:
[1] = system: Candida parapsilosis ATCC 22019; assay: Minimum inhibitory concentration (MIC) test against fungi; assay type: cell-based; details: Lodderomyces parapsilosis, ATCC22019, 24 h, ≥50% growth inhibition by eye, three independent experiments (1st, 2nd, 3rd time), read-out: MIC
Protocol: (§1) To test the minimum inhibitory concentration (MIC) and minimum effective concentration (MEC) of the drug against fungi.
(§2) Experimental strains: Candida parapsilosis ATCC 22019; Candida albicans ATCC MYA-2876; Candida albicans WX-CA009; Candida glabrata ATCC15126; Candida tropicalis ATCC 750;
(§3) Test medium: RPMI1640 (containing 0.165 M MOPS, pH7.0)
(§4) On the day of the experiment, the compound in the bottle was dissolved in 100% DMSO to a stock solution concentration of 6.24 mg/mL. Then, the mixture was 10-fold diluted with DMSO to 0.624 mg/mL for use.
(§5) A 2-fold gradient dilution of the compound solution (0.624 mg/mL) was performed using DMSO on a 96-microwell plate (V-bottom) to obtain 100× working solutions (wells 1 to 11). 624, 312, 156, 78, 39, 20, 10, 5, 2.5, 1.25, 0.625 μg/mL. 100% DMSO was used as a positive control (well 12). This was the compound stock plate.
(§6) Candida parapsilosis ATCC 22019 and Candida albicans ATCC MYA-2876; Candida albicans WX-CA009; Candida glabrata ATCC15126; Candida tropicalis ATCC 750 frozen at −80° C. were streaked on SDA plates and incubated aerobically in a 35±2° C. incubator for 24 hours.
(§7) On the day of the experiment, for strains Candida parapsilosis ATCC 22019, Candida albicans ATCC MYA-2876; Candida albicans WX-CA009; Candida glabrata ATCC15126; Candida tropicalis ATCC 750 and Cryptococcus neoformans H99 ATCC 208821, the plates were taken out and the clones on the plates were picked, suspended in normal saline, and then the turbidity of the fungal suspension was adjusted to OD600=0.2 using a turbidimeter. The fungal suspension contained about 3.0×10^6 CFU/mL. Then the turbidity-adjusted fungal suspension was diluted with a test medium to a concentration of about 3.0×10^3 CFU/mL. This was the inoculum.
(§8) 2 μL of 100× working solution from the compound stock plate (prepared in 3.1) was transferred to a round-bottomed 96-well plate (containing 98 μL of test medium), and then 100 μL of fungus inoculum (prepared in 3.2) was added to each well to obtain a MIC test plate. Therefore, the final test concentrations of the compounds were 6.24, 3.12, 1.56, 0.78, 0.39, 0.20, 0.10, 0.05, 0.025, 0.0125, 0.006 μg/mL. 1% DMSO was used as a growth control.
(§9) For strains Candida parapsilosis ATCC 22019; Candida albicans ATCC MYA-2876; Candida albicans WX-CA009; Candida glabrata ATCC15126; Candida tropicalis ATCC 750, all test plates were incubated aerobically in a 35±2° C. incubator for 24 hours.
(§10) After incubation, according to the criteria in Table 1 below, the test plate was observed by eye or microscope to determine the MIC (g/mL) and MEC (g/mL) of the test compound against yeast and mold.

[2] = system: Candida albicans WX-CA009; assay: as above; assay type: cell-based; details: Candida albicans, WXCA009, 24 h, ≥50% growth inhibition by eye, three independent experiments, read-out: MIC
Protocol: as §1, §2, §3, §4, §5, §6, §7, §8, §9, §10

[3] = system: Candida glabrata ATCC15126; assay: as above; assay type: cell-based; details: ≥50% growth inhibition by eye, three independent experiments
Protocol: as §1, §2, §3, §4, §5, §6, §7, §8, §9, §10

[4] = Mouse pharmacokinetic evaluation, intraperitoneal injection after oral ABT; assay type: in vivo; details: ip, female CD-1 mice, 26 mpk, ABT 50 mg/kg orally 2 hours before, plasma
Description: Experimental Purpose: Using female CD-1 mice as test animals, LC/MS/MS was used to measure the plasma drug concentration at different times after intraperitoneal injection of the test compound. To study the pharmacokinetic behavior of the test compound in mice and evaluate its pharmacokinetic characteristics. Drug preparation: An appropriate amount of sample was weighed and then prepared into a clear or suspended solution. Administration scheme: Two healthy female CD-1 mice were taken, purchased from Beijing Vital River Laboratory Animal Technology Co., Ltd., and given a normal diet. The drug was administered through intraperitoneal injection. Operational steps: 2 hours before administration, 1-aminobenzotriazole (ABT) was orally administered (50 mg/kg, 5 mg/mL in normal saline), and after animal administration, about 30 μL of blood was collected at 0.083, 0.25, 0.5, 1, 2, 4, 8, and 24 hours, and placed in commercially available anticoagulant tubes pre-added with EDTA-K2. The tubes were centrifuged for 10 minutes to separate the plasma, and the plasma was stored at −60° C. The content of the target compound in the plasma sample was determined by LC/MS/MS method, and the experimental results are shown in Table 3.

[5] = system: Candida albicans ATCC MYA-4788; assay: Mouse Candida vaginal infection model; assay type: in vivo; details: female C3H/NeH mice, 20 mpk intraperitoneally once a day for 3 days after ABT, CFU at 96 hours of infection, P<0.001
Protocol: • Experimental animals: female C3H/NeH mice, 6 to 8 weeks old, 19 to 21 g, n=5 to 6; • microbial pathogen: Candida albicans ATCC MYA-4788; • inoculation level and route: 5.0E+05 CFU/mouse, infected by vaginal instillation; • test sample: WX004: 20 mpk
Treatment: ABT was administered orally 22 hours after infection, and the test compound was injected intraperitoneally 24 hours after infection. In this experiment, the Vehicle group and the test compound group were set up, with a total of 3 days of administration, once a day, and a administration volume of 10 mL/kg.
Observation indicators: After 96 hours of infection in each group of mice, the vaginal tissue and vaginal lavage fluid of the mice were taken for CFU counting. Plasma samples were collected at 0.25 h, 0.5 h, 1 h, 2 h, 4 h, 8 h, and 24 h after the last administration.

Nc1ccc(C#CCc2ccc(COc3ccccn3)cc2)cn1 [WX004] showed an MIC [1] of 0.05 µg/mL (≈ 0.159 µM), an MIC [2] of 0.025 µg/mL (≈ 0.0793 µM) and an MIC ([3]; Nakaseomyces glabratus, ATCC15126, 24 h, read-out: MIC) of 0.39 µg/mL (≈ 1.24 µM). It also gave an MIC ([3]; 24 hours) of 0.78 µg/mL (≈ 2.47 µM), an AUC ([4]; read-out: Concentration Integral AUC) of 305 µM·h and a Cmax ([4]; read-out: Peak Concentration Cmax) of 19 µM. The Tmax ([4]; read-out: Peak Time Tmax) was 1 h, the “reduction of fungal load in the vaginal lavage fluid compared with the Vehicle group” value [5] was 2.5 lg and the “reduction of fungal load in the vaginal tissue compared with the Vehicle group” value [5] was 2.7 lg.
